Data on two molecules can be found in patent US4430327A, “Method for treating pregnant females for pain and anxiety” (Eli Lilly and Company, priority 1982, dated 1984).

Data set [1] can be described thus: Placental transport in pregnant rats: maternal and fetal serum levels after subcutaneous administration. The format is in vivo. The settings on record: rat, 50 mg/kg subcutaneous. The procedure:
In the assay using rats, 19 female rats on day 20 of their gestation period were administered 50 mg./kg. body weight metkephamid (acetate salt) subcutaneously. Sixty minutes after administration, the rats were decapitated, and their blood was collected in glass tubes. The fetuses were removed from the uterus, and the blood was collected either after decapitation or via heart puncture using glass capillary tubes.
(§1) In assaying for metkephamid, 1 ml. serum samples containing 6.72 mg. NaF and 8.0 mg. ethylenediamine tetraacetic acid (EDTA) were prepared and precipitated by addition of 2 ml. acetone. The resulting supernatants were saturated with NaCl and extracted with ethyl acetate. The extracts were dried and derivatized with Fluram® solution. The resulting solution was subjected to reverse phase high performance liquid chromatography and fluorescence detection.
For comparison, meperidine was administered to rats in the manner described for metkephamid. Meperidine content was assayed by adding 6.72 mg. NaF and 8.0 mg. EDTA to 1 ml. samples of serum. The samples were made alkaline with 0.1 ml. of 1.0 M NaOH and extracted with diethyl ether. The extracts were dried and dissolved in 0.3 ml. of ethyl acetate. An aliquot was injected into a gas chromatograph containing a 5 ft. glass column packed with 3% OV-1 on 100/120 mesh Gas Chrom Q. The oven temperature was 165° C., and the flame ionization detector temperature was 250° C.

Data set [2] in a line: Placental transport in pregnant ewes: maternal and fetal serum levels after intramuscular administration. It counts as in vivo. Conditions: sheep. The procedure:
In the assay using pregnant ewes, fetal jugular veins and carotid arteries were catheterized and externalized. Maternal femoral arteries were also catheterized. Upon stabilization of the animals, metkephamid (acetate salt) was given intramuscularly, and maternal (10 ml.) and fetal (7 ml.) arterial blood were taken at 0, 10, 20, and 45 minutes. In this assay, 5 ewes at various stages of pregnancy ranging from day 115 to day 145 of a 145-147 day gestation period were used.
as §1

Each structure is given as a SMILES string.

For `CCOC(=O)C1(c2ccccc2)CCN(C)CC1` [Meperidine, meperidine, reference compound], in data set [1] (45 min), the Fetal serum level came out at 2.02 ± 0.23 µg/mL and the Maternal serum level worked out at 3.73 ± 0.89 µg/mL.

For the molecule `CC(=O)O.CSCC[C@@H](C(N)=O)N(C)C(=O)[C@H](Cc1ccccc1)NC(=O)CNC(=O)[C@@H](C)NC(=O)[C@@H](N)Cc1ccc(O)cc1` [Metkephamid, L-tyrosyl-D-alanyl-glycyl-L-phenylalanyl-N^α -methyl-L-methionylamide acetate], the Fetal serum level in data set [1] (60 min) came out at 0.12 ± 0.04 µg/mL; in data set [2] (5 mg/kg intramuscular, 0 min) it was 0.0 µg/mL; in data set [2] (5 mg/kg intramuscular, 10 min) it was 0.0 µg/mL; in data set [2] (5 mg/kg intramuscular, 20 min) it was 0.0 µg/mL; in data set [2] (5 mg/kg intramuscular, 45 min), 0.0 µg/mL. Moreover, the Maternal serum level in data set [1] (60 min) was 7.17 ± 0.28 µg/mL; in data set [2] (5 mg/kg intramuscular, 0 min), 0.0 µg/mL. Further, the level at 10 min in data set [2] (female, maternal serum, im, 5 mg/kg intramuscular, 10 min) was 9460 ± 3010 ng/mL. For the same molecule, the level at 20 min in data set [2] (female, maternal serum, im, 5 mg/kg intramuscular, 20 min) is 9430 ± 2600 ng/mL. Besides, in data set [2] (female, maternal serum, im, 5 mg/kg intramuscular, 45 min), the level at 0.75 h was 8540 ± 2600 ng/mL. Besides, the fetal levels entry in data set [2] (5 mg./kg., all measured times, limit of sensitivity about 50 ng./ml.) is “undetectable”.
